For experiment [1], the target named is T1, hM4 receptors (Homo sapiens, UniProt P08173).
T1 construct: expressed in transfected cells; host or cells: CHO cells
T1 sequence (P08173 1-479): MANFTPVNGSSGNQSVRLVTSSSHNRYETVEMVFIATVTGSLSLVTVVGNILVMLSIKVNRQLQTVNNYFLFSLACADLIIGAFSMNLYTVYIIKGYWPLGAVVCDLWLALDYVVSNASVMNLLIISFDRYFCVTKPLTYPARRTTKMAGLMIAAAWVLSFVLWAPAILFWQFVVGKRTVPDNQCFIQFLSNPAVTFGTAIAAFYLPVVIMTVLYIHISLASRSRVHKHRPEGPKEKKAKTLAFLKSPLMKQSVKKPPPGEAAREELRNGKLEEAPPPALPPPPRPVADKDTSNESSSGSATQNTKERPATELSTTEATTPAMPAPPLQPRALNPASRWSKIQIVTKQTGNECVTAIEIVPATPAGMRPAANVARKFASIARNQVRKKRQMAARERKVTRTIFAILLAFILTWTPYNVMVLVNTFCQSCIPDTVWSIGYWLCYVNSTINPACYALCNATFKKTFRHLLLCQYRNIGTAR
Nature of the experiment: Human M4 PAM PERK assay (CHO cells, TR-FRET, with EC20 acetylcholine). The class given is cell-based. The essentials:
(§1)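 CHO cells expressing human or rat M4, serum-starved 4 h, then given compound (10-point, 10 μM top, ½-log) with EC20 acetylcholine (10 nM final) for 5 min at 37 °C. Lysates assayed for phospho-ERK by TR-FRET after 2 h detection at RT.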
For orientation: TR-FRET usually uses a lanthanide donor and a delayed reading to cut background.

Experiment [2] deals with T2, rM4 receptors (Rattus norvegicus, UniProt P08485).
T2 construct: expressed in transfected cells; host or cells: CHO cells
T2 sequence (P08485 1-478): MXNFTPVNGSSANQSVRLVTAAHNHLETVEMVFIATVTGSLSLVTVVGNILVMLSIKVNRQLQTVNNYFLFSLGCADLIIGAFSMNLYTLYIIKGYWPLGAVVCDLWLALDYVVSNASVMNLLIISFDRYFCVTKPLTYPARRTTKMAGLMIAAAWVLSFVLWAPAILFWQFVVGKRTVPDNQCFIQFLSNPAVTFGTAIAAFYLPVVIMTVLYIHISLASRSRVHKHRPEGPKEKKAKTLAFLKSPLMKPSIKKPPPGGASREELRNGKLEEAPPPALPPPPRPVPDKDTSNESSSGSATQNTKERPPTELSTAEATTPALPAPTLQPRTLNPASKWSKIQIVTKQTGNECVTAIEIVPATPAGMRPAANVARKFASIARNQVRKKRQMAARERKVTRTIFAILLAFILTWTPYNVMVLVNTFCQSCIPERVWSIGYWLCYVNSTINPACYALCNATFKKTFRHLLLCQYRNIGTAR
Nature of the experiment: Rat M4 PAM PERK assay (CHO cells, TR-FRET, with EC20 acetylcholine). It counts as cell-based. The method, boiled down:
as §1

In experiment [3] the target is T3, human M4 receptor (Homo sapiens, UniProt P08173).
T3 construct: expressed in transfected cells; host or cells: CHO-K1 cells (membranes)
T3 sequence (P08173 1-479): T1 sequence (P08173 1-479)
Nature of the experiment: M4 GTPγS PAM assay (CHO-K1 membranes, 35S-GTP binding, with EC20 acetylcholine). The class given is biochemical. The note with it: with EC20 acetylcholine (40 nM). Here is the method: The M4 GTPγS PAM method was used. Membranes were prepared for GTPgS binding assays from CHO-K1 cells stably expressing human M4 receptor. Briefly, cells were grown in 5-layer cell culture flasks. Cells were washed with 50 mL of PBS and then dissociated with 0.05% trypsin. Dissociated cells were then collected by centrifugation at 650×g for 8 minutes at 4° C. Pellets were washed again in PBS by centrifugation and resuspended in 30 mL of 20 mM HEPES, 10 mM EDTA, pH 7.4. After sitting on ice for 30 min, membranes were collected by centrifugation at 50000×g for 15′ at 4° C., resuspended in 30 mL of 20 mM HEPES, 0.1 mM EDTA, pH 7.4 and collected again by centrifugation. Pellets were then washed twice by centrifugation in 30 mL of 20 mM HEPES, pH 7.4, and stored at −80° C. until the day of the assay. On the day of the assay, pellets were thawed on ice and resuspended in 1 mL of 20 mM HEPES, pH 7.4, 10 mM MgCl2, 100 mM NaCl using dounce homogenization. Membrane protein concentration is determined by BCA protein assay (Promega, Madison, WI) according to Promega guidelines.
On the day of the assay, serial dilutions of test PAM compounds were brought up in assay buffer (20 mM HEPES, 10 mM MgCl2, 100 mM NaCl) at 4X final assay concentration. […] of membrane homogenates (containing […] of membrane protein) were prepared in assay buffer supplemented with GDP at […] final assay concentration (final assay concentration of GDP is 5 μM for M2 and 0.1 μM for M4) and dispensed into 96 well polypropylene, U-bottom Greiner plates. 25 ml of vehicle or test PAM compound at 4× of final assay concentration diluted in the assay buffer were added to membrane and plates are incubated for 10-15 minutes at room temperature with gentle shaking. Then, […] of EC20 acetylcholine in assay buffer at 4× final assay concentration was added to assay plates (EC20 final assay concentrations was 40 nM for human M4).
Plates were then incubated, with shaking, for an additional 10-15 minutes. […] of 0.4 nM 35S-GTP (Perkin Elmer, Waltham, MA) in assay buffer was added to assay mixtures. The binding reaction is left on the shaker for 1 hour at room temperature. Membranes in assay reactions were then transferred to GF/C filter plates (Unifilter, Perkin Elmer) and washed three times using a FilterMate Harvester (Perkin Elmer) with cold assay buffer containing no GDP. Filter plates were then dried at 40° C. overnight followed by the addition of […] of Beta Plate Scintillation liquid. Plates are top and bottom sealed before being read on TopCount scintillation counter (Perkin Elmer, Waltham, MA).

As a reminder, the EC50 is the midpoint of the concentration-response curve. Read a high EC50 as lower potency in that assay. As to `Cc1c2c(n(C)c(=O)c1Cl)CN(C(=O)CC1CN(c3ccc(F)cc3)C1)C2` [Compound I-79], the EC50 in experiment [1] was less than 0.05 µM; in experiment [2], 0.05 to 0.2 µM; in experiment [3], less than 0.05 µM.
For the compound `Cc1c2c(n(C)c(=O)c1Cl)CN(C(=O)CC1CN(c3ncns3)C1)C2` [Compound I-80], the figures for the EC50 in experiment [1], in experiment [2] and in experiment [3] were less than 0.05 µM, 0.2 to 1 µM and 0.05 to 0.2 µM, respectively.
Taken in the same sequence, the figures for `Cc1c2c(n(C)c(=O)c1F)CN(C(=O)CC1CN(c3ccc(C(F)(F)F)cc3)C1)C2` [Compound I-85] were 0.05 to 0.2 µM, 0.05 to 0.2 µM and less than 0.05 µM.
Regarding `Cc1c2c(n(C)c(=O)c1F)CN(C(=O)CC1CN(c3cnc(C(F)(F)F)cn3)C1)C2` [Compound I-90], the 50% effective concentration (EC50) in experiment [1] lay in the range of 0.2 to 1 µM; in experiment [2] it was 0.05 to 0.2 µM; in experiment [3] it was 0.2 to 1 µM.
As to `Cn1c2c(c(C(F)(F)F)cc1=O)CN(C(=O)CC1CN(c3cccnc3)C1)C2` [Compound I-91, 1-Methyl-6-(2-(1-(pyridin-3-yl)azetidin-3-yl)acetyl)-4-(trifluoromethyl)-1,5,6,7-tetrahydro-2H-pyrrolo[3,4-b]pyridin-2-one], the concentration giving a half-maximal response (EC50) is 0.2 to 1 µM in experiment [1], 0.2 to 1 µM in experiment [2] and more than 1 µM in experiment [3].
In the case of `COc1cc(N2CC(CC(=O)N3Cc4c(C(F)(F)F)cc(=O)n(C)c4C3)C2)ccn1` [Compound I-92], the values for the half-maximal effective concentration (EC50) in experiment [1], in experiment [2] and in experiment [3] were 0.2 to 1 µM, more than 1 µM and more than 1 µM, respectively.
On to `Cc1c2c(n(CC(F)(F)F)c(=O)c1Cl)CN(C(=O)CC1CN(c3ccncn3)C1)C2` [Compound I-95], for which the EC50 in experiment [1] was 0.05 to 0.2 µM; in experiment [2] it was more than 1 µM; in experiment [3] it was 0.05 to 0.2 µM.
In the case of `COc1c2c(n(C)c(=O)c1C)CN(C(=O)CC1CN(c3ccc(C(F)(F)F)cc3)C1)C2` [Compound I-100], the EC50 is 0.05 to 0.2 µM in experiment [1], 0.2 to 1 µM in experiment [2] and less than 0.05 µM in experiment [3].
For `Cc1cc(=O)n(CC2CC2)c2c1CN(C(=O)CC1CN(c3ccc(C(F)(F)F)cc3)C1)C2` [Compound I-102], the EC50 in experiment [1] is 0.2 to 1 µM; in experiment [2], 0.2 to 1 µM; in experiment [3], 0.05 to 0.2 µM.
For `Cc1cc(=O)n(C)c2c1C(C)N(C(=O)CC1CN(c3ccc(C(F)(F)F)cc3)C1)C2` (stereo not drawn) [Compound I-115], the EC50 in experiment [1] fell in the range of 0.2 to 1 µM; in experiment [2], 0.2 to 1 µM; in experiment [3] it was 0.05 to 0.2 µM.
In the case of `Cc1cc(=O)n(C)c2c1[C@H](C)N(C(=O)CC1CN(c3ccc(C(F)(F)F)cc3)C1)C2` [Compound I-116, (S)-1,4,5-trimethyl-6-(2-(1-(4-(trifluoromethyl)phenyl)azetidin-3-yl)acetyl)-1,5,6,7-tetrahydro-2H-pyrrolo[3,4-b]pyridin-2-one], the EC50 in experiment [1], in experiment [2] and in experiment [3] was more than 1 µM in each case.
Take `Cc1cc(=O)n(C)c2c1[C@@H](C)N(C(=O)CC1CN(c3ccc(C(F)(F)F)cc3)C1)C2` [Compound I-117, (R)-1,4,5-trimethyl-6-(2-(1-(4-(trifluoromethyl)phenyl)azetidin-3-yl)acetyl)-1,5,6,7-tetrahydro-2H-pyrrolo[3,4-b]pyridin-2-one]: the figures for the half-maximal effective concentration (EC50) in experiment [1], in experiment [2] and in experiment [3] were 0.2 to 1 µM, 0.2 to 1 µM and less than 0.05 µM, respectively.
Regarding `Cc1c2c(n(C)c(=O)c1Cl)CN(C(=O)CC1CN(c3ccnc(C(F)(F)F)c3)C1)C2C` (stereo not drawn) [Compound I-118, 3-Chloro-1,4,5-trimethyl-6-(2-(1-(2-(trifluoromethyl)pyridin-4-yl)azetidin-3-yl)acetyl)-1,5,6,7-tetrahydro-2H-pyrrolo[3,4-b]pyridin-2-one], the values for the EC50 in experiment [1], in experiment [2] and in experiment [3] were less than 0.05 µM, 0.05 to 0.2 µM and less than 0.05 µM, respectively.

For the origin of these results see patent US20260209220A1, “SUBSTITUTED TETRAHYDROPYRROLO-PYRIDINONE COMPOUNDS AND THEIR USE IN TREATING MEDICAL CONDITIONS” (Karuna Therapeutics, Inc., priority 2022, published 2026).
